Test results as given in PubChem BioAssay (NCI).
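Exposure lasted 48 hours, with cells grown in 96-well plates and compounds tested at five concentrations. TGI marks complete inhibition of growth.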

Legend:
Test in all cases: growth of human tumour cells (NCI), 48 h
[1] = tested on: OVCAR-3 ovarian
[2] = tested on: HS 578T breast
[3] = tested on: HCT-15 colon
[4] = tested on: CCRF-CEM leukemia
[5] = tested on: OVCAR-8 ovarian
[6] = tested on: T-47D breast
[7] = tested on: MDA-MB-231 breast
[8] = tested on: IGROV1 ovarian
[9] = tested on: MDA-MB-435
[10] = tested on: OVCAR-4 ovarian
[11] = tested on: SNB-19 CNS
[12] = tested on: HCT-116 colon
[13] = tested on: BT-549 breast
[14] = tested on: MDA-N
[15] = tested on: NCI-H226 lung
[16] = tested on: RPMI-8226 leukemia
[17] = tested on: SF-268 CNS
[18] = tested on: NCI-H23 lung
[19] = tested on: COLO 205 colon
[20] = tested on: MOLT-4 leukemia
[21] = tested on: KM12 colon
[22] = tested on: HL-60(TB) leukemia
[23] = tested on: EKVX NSCLC
[24] = tested on: U251 CNS
[25] = tested on: SNB-75 CNS
[26] = tested on: HT29 colon
[27] = tested on: NCI/ADR-RES ovarian
[28] = tested on: A498 renal
[29] = tested on: HOP-62 NSCLC
[30] = tested on: DU-145 prostate
[31] = tested on: CAKI-1 renal
[32] = tested on: PC-3 prostate
[33] = tested on: SK-MEL-28 melanoma
[34] = tested on: LOX IMVI melanoma
[35] = tested on: K-562 leukemia
[36] = tested on: 786-0 renal
[37] = tested on: UACC-62 melanoma
[38] = tested on: SN12C renal
[39] = tested on: SW-620 colon
[40] = tested on: SK-MEL-5 melanoma
[41] = tested on: SK-MEL-2 melanoma
[42] = tested on: NCI-H460 lung
[43] = tested on: UACC-257 melanoma
[44] = tested on: UO-31 renal
[45] = tested on: M14 melanoma
[46] = tested on: HOP-92 NSCLC
[47] = tested on: MCF7 breast
[48] = tested on: SF-539 CNS
[49] = tested on: HCC-2998 colon
[50] = tested on: NCI-H522 lung
[51] = tested on: ACHN renal
[52] = tested on: A549 NSCLC
[53] = tested on: SK-OV-3 ovarian
[54] = tested on: RXF 393 renal
[55] = tested on: TK-10 renal
[56] = tested on: MALME-3M melanoma
[57] = tested on: SR leukemia
[58] = tested on: SF-295 CNS
[59] = tested on: OVCAR-5 ovarian

CN(C)CCNc1ccc(NCC[N+](C)(C)Cc2ccc([N+](=O)[O-])cc2)c2c1C(=O)c1c(O)ccc(O)c1C2=O
TGI [1]: > 100 µM | TGI [2]: > 100 µM | TGI [3]: > 100 µM | TGI [4]: > 100 µM | TGI [5]: > 100 µM | TGI [6]: > 100 µM | TGI [7]: > 100 µM | TGI [8]: > 100 µM | TGI [9]: > 100 µM | TGI [10]: > 100 µM | TGI [11]: > 100 µM | TGI [12]: > 100 µM | TGI [13]: 40.9 µM | TGI [14]: 69 µM | TGI [15]: > 100 µM | TGI [16]: > 100 µM | TGI [17]: > 100 µM | TGI [18]: > 100 µM | TGI [19]: > 100 µM | TGI [20]: 8.8 µM | TGI [21]: > 100 µM | TGI [22]: > 100 µM | TGI [23]: > 100 µM | TGI [24]: > 100 µM | TGI [25]: > 100 µM | TGI [26]: > 100 µM | TGI [27]: > 100 µM | TGI [28]: > 100 µM | TGI [29]: > 100 µM | TGI [30]: > 100 µM | TGI [31]: > 100 µM | TGI [32]: > 100 µM | TGI [33]: > 100 µM | TGI [34]: > 100 µM | TGI [35]: > 100 µM | TGI [36]: > 100 µM | TGI [37]: > 100 µM | TGI [38]: > 100 µM | TGI [39]: > 100 µM | TGI [40]: 47.5 µM | TGI [41]: > 100 µM

CN(C)c1cccc(-c2cc(=S)c3cc4c(cc3[nH]2)OCO4)c1
TGI [1]: > 100 µM | TGI [2]: > 100 µM | TGI [3]: > 100 µM | TGI [4]: > 100 µM | TGI [5]: > 100 µM | TGI [6]: > 100 µM | TGI [42]: > 100 µM | TGI [7]: > 100 µM | TGI [8]: > 100 µM | TGI [43]: > 100 µM | TGI [44]: > 100 µM | TGI [45]: > 100 µM | TGI [46]: > 100 µM | TGI [47]: > 100 µM | TGI [10]: > 100 µM | TGI [11]: > 100 µM | TGI [48]: > 100 µM | TGI [12]: > 100 µM | TGI [13]: > 100 µM | TGI [14]: 11.8 µM | TGI [49]: > 77.7 µM | TGI [15]: > 100 µM | TGI [50]: 67.7 µM | TGI [51]: > 100 µM | TGI [16]: > 100 µM | TGI [17]: > 100 µM | TGI [52]: > 100 µM | TGI [18]: > 100 µM | TGI [53]: > 100 µM | TGI [19]: > 100 µM | TGI [20]: > 93 µM | TGI [54]: 43.3 µM | TGI [21]: > 100 µM | TGI [55]: > 100 µM | TGI [56]: > 100 µM | TGI [23]: > 100 µM | TGI [24]: > 100 µM | TGI [26]: 24.7 µM | TGI [27]: > 100 µM | TGI [57]: > 100 µM | TGI [28]: > 100 µM | TGI [29]: > 100 µM | TGI [30]: > 100 µM | TGI [58]: > 100 µM | TGI [31]: > 100 µM | TGI [32]: > 100 µM | TGI [33]: > 100 µM | TGI [34]: > 100 µM | TGI [59]: > 100 µM | TGI [35]: > 100 µM | TGI [36]: > 100 µM | TGI [37]: > 100 µM | TGI [38]: > 100 µM | TGI [39]: > 100 µM | TGI [40]: > 100 µM | TGI [41]: > 100 µM

C=CC(=O)NCCC(=O)OCn1cc(F)c(=O)[nH]c1=O
TGI [1]: > 100 µM | TGI [2]: > 100 µM | TGI [3]: > 100 µM | TGI [4]: > 100 µM | TGI [5]: > 100 µM | TGI [6]: > 100 µM | TGI [42]: 2.34 µM | TGI [8]: > 100 µM | TGI [43]: > 100 µM | TGI [44]: > 100 µM | TGI [45]: > 100 µM | TGI [46]: > 100 µM | TGI [47]: > 100 µM | TGI [9]: > 100 µM | TGI [10]: 40.3 µM | TGI [11]: > 100 µM | TGI [48]: > 100 µM | TGI [12]: 66.8 µM | TGI [13]: > 100 µM | TGI [14]: > 100 µM | TGI [49]: > 100 µM | TGI [15]: > 100 µM | TGI [50]: > 100 µM | TGI [51]: > 100 µM | TGI [16]: > 100 µM | TGI [17]: > 100 µM | TGI [52]: > 100 µM | TGI [18]: > 100 µM | TGI [53]: > 100 µM | TGI [19]: > 100 µM | TGI [20]: > 100 µM | TGI [54]: 94.6 µM | TGI [21]: > 100 µM | TGI [55]: > 100 µM | TGI [22]: > 100 µM | TGI [56]: > 100 µM | TGI [23]: > 100 µM | TGI [24]: > 100 µM | TGI [25]: > 100 µM | TGI [26]: > 100 µM | TGI [27]: > 100 µM | TGI [57]: 52.5 µM | TGI [28]: > 100 µM | TGI [29]: > 100 µM | TGI [30]: > 100 µM | TGI [58]: > 100 µM | TGI [31]: > 100 µM | TGI [32]: > 100 µM | TGI [33]: > 100 µM | TGI [34]: > 100 µM | TGI [59]: > 100 µM | TGI [35]: > 100 µM | TGI [36]: > 100 µM | TGI [37]: > 100 µM | TGI [38]: 15.3 µM | TGI [39]: > 100 µM | TGI [40]: > 100 µM | TGI [41]: > 100 µM

COC(=O)NC(=O)NC(Cc1ccccc1)NC(=O)OCc1ccccc1 (stereo not drawn)
TGI [1]: > 100 µM | TGI [3]: > 100 µM | TGI [4]: > 100 µM | TGI [5]: > 100 µM | TGI [6]: > 100 µM | TGI [42]: > 100 µM | TGI [7]: 78.1 µM | TGI [8]: > 100 µM | TGI [43]: > 100 µM | TGI [44]: > 100 µM | TGI [45]: > 100 µM | TGI [46]: 42.5 µM | TGI [47]: > 100 µM | TGI [9]: > 100 µM | TGI [10]: > 100 µM | TGI [11]: > 100 µM | TGI [48]: 71.4 µM | TGI [12]: > 100 µM | TGI [13]: > 100 µM | TGI [14]: > 100 µM | TGI [49]: > 100 µM | TGI [15]: > 100 µM | TGI [50]: > 100 µM | TGI [51]: > 100 µM | TGI [16]: > 100 µM | TGI [17]: > 100 µM | TGI [52]: > 100 µM | TGI [18]: > 100 µM | TGI [53]: 57.5 µM | TGI [19]: > 100 µM | TGI [20]: > 100 µM | TGI [54]: 45.4 µM | TGI [21]: > 100 µM | TGI [55]: > 100 µM | TGI [22]: > 100 µM | TGI [56]: > 100 µM | TGI [23]: > 100 µM | TGI [24]: > 100 µM | TGI [25]: 50.5 µM | TGI [26]: > 100 µM | TGI [27]: > 100 µM | TGI [57]: > 100 µM | TGI [28]: 91.5 µM | TGI [29]: > 100 µM | TGI [30]: > 100 µM | TGI [58]: > 100 µM | TGI [31]: > 100 µM | TGI [32]: > 100 µM | TGI [33]: > 100 µM | TGI [34]: > 100 µM | TGI [59]: > 100 µM | TGI [35]: > 100 µM | TGI [36]: > 100 µM | TGI [37]: > 100 µM | TGI [38]: > 100 µM | TGI [39]: > 100 µM | TGI [40]: > 100 µM | TGI [41]: > 100 µM
